Experimental data reported in patent publication US10721934B2, “Enhanced preservative” (Arch Chemicals, Inc., priority 2013, dated 2020).
≈ marks a conversion by molar mass, not a printed value. Blank lines part the entries; values can stand above or below the compound they belong to.

Tests used:
Assay type in all cases: cell-based
Aureobasidium pullulans = test: MIC test, 96 well microtiter plate; settings: single chemical
Description: (§1) MIC set up: A 96 well microtiter plate Minimum Inhibitory Concentration (MIC) test was run in broth suitable for the test organism. Serially diluted actives were prepared in sterilized water, and the start-up concentration varied depending on the efficacy range. Inocula prepared in 2× suitable broth was added into each well, and the final concentrations of bacteria were adjusted to approximately 5×10^5.
(§2) Further MIC tests were conducted using different amine compounds in combination with a pyrithione and two different isothiazolinones. The procedures described in Example No. 1 were used.

Aspergillus brasiliensis = test: MIC test, 96 well microtiter plate; settings: single chemical
Description: as §1, §2

Staphylococcus aureus = test: MIC test, 96 well microtiter plate; settings: single chemical
Description: as §1, §2

Candida albicans = test: MIC test, 96 well microtiter plate; settings: single chemical
Description: as §1, §2

Escherichia coli = test: MIC test, 96 well microtiter plate; settings: single chemical
Description: as §1, §2

[1] = system: Pseudomonas aeruginosa ATCC 15442; test: Minimum Inhibitory Concentration (MIC) test, 96 well microtiter plate; settings: for biocide enhancing effect on zinc pyrithione: MIC of blends with ZnPT, Table 1; for MIC: Pseudomonas aeruginosa, ATCC15442, single chemical
Description: Microorganisms: Pseudomonas aeruginosa ATCC 15442
as §1

[2] = system: mixed bacterial inoculum (Pseudomonas aeruginosa, Enterobacter cloacae, Escherichia coli, Acinetobacter calcoaceticus); test: Repeated inoculation of standard acrylic paint, streak plate rating
Description: In the following experiments, a pyrithione, an isothiazolinone, and a biocide enhancing agent in accordance with the present disclosure were combined with a standard acrylic paint. The concentrations of the pyrithione, the isothiazolinone and the biocide enhancing agent were varied. The pyrithione, the isothiazolinone and the biocide enhancing agent were added alone and in various mixtures to the standard acrylic paint.
The acrylic paint was then inoculated three times using a mixed bacterial inoculum. The bacterial inoculum, which comprised a bacterial suspension in water, contained the following four bacteria in equal proportions.
The samples were streak plated at 24, 48, and 72 hours after inoculation. The streak plates were rated as follows;

SMILES: CCCCn1sc2ccccc2c1=O [BBIT]
Minimum Inhibitory Concentration (Aureobasidium pullulans): 2.5 ppm | Minimum Inhibitory Concentration (Aspergillus brasiliensis): 1.9 ppm | Minimum Inhibitory Concentration (Staphylococcus aureus): 5.0 ppm | Minimum Inhibitory Concentration (Candida albicans): 3.75 ppm | Minimum Inhibitory Concentration (Escherichia coli): 80.0 ppm

SMILES: CCCCCCCCCCCCCCCCCCN(C)C [DMODA, N,N-Dimethyloctadecylamine]
biocide enhancing effect on zinc pyrithione [1]: enhance the effectiveness of the zinc pyrithione | MIC [1]: > 640 µg/mL

SMILES: CCCCCCCCCCCCN1CCOCC1 [DDM, 4-Dodecylmorpholine]
streak plate rating ([2]; Set Three, DDM 1200 ppm, 1st inoculation 24 h): 5 (>45 viable microorganisms Severely contaminated) | streak plate rating ([2]; Set Three, DDM 1200 ppm, 1st inoculation 48 h): 5 (>45 viable microorganisms Severely contaminated) | streak plate rating ([2]; Set Three, DDM 1200 ppm, 1st inoculation 72 h): 5 (>45 viable microorganisms Severely contaminated) | streak plate rating ([2]; Set Three, DDM 1200 ppm, 2nd inoculation 24 h): 5 (>45 viable microorganisms Severely contaminated) | streak plate rating ([2]; Set Three, DDM 1200 ppm, 2nd inoculation 48 h): 5 (>45 viable microorganisms Severely contaminated) | streak plate rating ([2]; Set Three, DDM 1200 ppm, 2nd inoculation 72 h): 5 (>45 viable microorganisms Severely contaminated) | streak plate rating ([2]; Set Three, DDM 1200 ppm, 3rd inoculation 24 h): 5 (>45 viable microorganisms Severely contaminated) | streak plate rating ([2]; Set Three, DDM 1200 ppm, 3rd inoculation 48 h): 5 (>45 viable microorganisms Severely contaminated) | streak plate rating ([2]; Set Three, DDM 1200 ppm, 3rd inoculation 72 h): 5 (>45 viable microorganisms Severely contaminated)

Further lines, with some results ahead:

MIC (Aureobasidium pullulans; Aureobasidium pullulans, read-out: Minimum Inhibitory Concentration): 500 µg/mL | MIC (Aspergillus brasiliensis; Aspergillus brasiliensis, read-out: Minimum Inhibitory Concentration): 500 µg/mL | MIC (Staphylococcus aureus; Staphylococcus aureus, read-out: Minimum Inhibitory Concentration): 250 µg/mL | MIC (Candida albicans; Candida albicans, read-out: Minimum Inhibitory Concentration): 375 µg/mL | MIC (Escherichia coli; Escherichia coli, read-out: Minimum Inhibitory Concentration): 750 µg/mL
SMILES: CCCCCCCC[N+](C)(C)[O-] [DMOA Oxide, N,N-dimethyloctylamine-n-oxide]
Minimum Inhibitory Concentration (Aspergillus brasiliensis): 500 ppm

MIC [1]: 200 µg/mL (≈ 1080 µM)
SMILES: CCCCCCCCCCCCN [DDA, 1-dodecylamine]
biocide enhancing effect on the isothiazolin ([1]; MIC of blends with BIT, Table 2): had an enhancing effect on the isothiazolin | biocide enhancing effect on zinc pyrithione [1]: enhance the effectiveness of the zinc pyrithione | streak plate rating ([2]; Set Four, DDA 600 ppm, 1st inoculation 24 h): 5 (>45 viable microorganisms Severely contaminated) | streak plate rating ([2]; Set Four, DDA 600 ppm, 1st inoculation 48 h): 2 (6-15 viable microorganisms Lightly contaminated) | streak plate rating ([2]; Set Four, DDA 600 ppm, 1st inoculation 72 h): 0 | streak plate rating ([2]; Set Four, DDA 600 ppm, 2nd inoculation 24 h): 5 (>45 viable microorganisms Severely contaminated) | streak plate rating ([2]; Set Four, DDA 600 ppm, 2nd inoculation 48 h): 5 (>45 viable microorganisms Severely contaminated) | streak plate rating ([2]; Set Four, DDA 600 ppm, 2nd inoculation 72 h): 5 (>45 viable microorganisms Severely contaminated) | streak plate rating ([2]; Set Four, DDA 600 ppm, 3rd inoculation 24 h): 5 (>45 viable microorganisms Severely contaminated) | streak plate rating ([2]; Set Four, DDA 600 ppm, 3rd inoculation 48 h): 5 (>45 viable microorganisms Severely contaminated) | streak plate rating ([2]; Set Four, DDA 600 ppm, 3rd inoculation 72 h): 5 (>45 viable microorganisms Severely contaminated) | streak plate rating ([2]; Set One, DDA 600 ppm, 1st inoculation 24 h): 5 (>45 viable microorganisms Severely contaminated) | streak plate rating ([2]; Set One, DDA 600 ppm, 1st inoculation 48 h): 5 (>45 viable microorganisms Severely contaminated) | streak plate rating ([2]; Set One, DDA 600 ppm, 1st inoculation 72 h): 5 (>45 viable microorganisms Severely contaminated) | streak plate rating ([2]; Set One, DDA 600 ppm, 2nd inoculation 24 h): 5 (>45 viable microorganisms Severely contaminated) | streak plate rating ([2]; Set One, DDA 600 ppm, 2nd inoculation 48 h): 5 (>45 viable microorganisms Severely contaminated) | streak plate rating ([2]; Set One, DDA 600 ppm, 3rd inoculation 24 h): 5 (>45 viable microorganisms Severely contaminated) | streak plate rating ([2]; Set One, DDA 600 ppm, 3rd inoculation 48 h): 5 (>45 viable microorganisms Severely contaminated) | streak plate rating ([2]; Set One, DDA 600 ppm, 3rd inoculation 72 h): 5 (>45 viable microorganisms Severely contaminated) | streak plate rating ([2]; Set One, DDA 900 ppm, 1st inoculation 24 h): 5 (>45 viable microorganisms Severely contaminated) | streak plate rating ([2]; Set One, DDA 900 ppm, 1st inoculation 48 h): 5 (>45 viable microorganisms Severely contaminated) | streak plate rating ([2]; Set One, DDA 900 ppm, 1st inoculation 72 h): 5 (>45 viable microorganisms Severely contaminated) | streak plate rating ([2]; Set One, DDA 900 ppm, 2nd inoculation 24 h): 5 (>45 viable microorganisms Severely contaminated) | streak plate rating ([2]; Set One, DDA 900 ppm, 2nd inoculation 48 h): 5 (>45 viable microorganisms Severely contaminated) | streak plate rating ([2]; Set One, DDA 900 ppm, 3rd inoculation 24 h): 5 (>45 viable microorganisms Severely contaminated) | streak plate rating ([2]; Set One, DDA 900 ppm, 3rd inoculation 48 h): 5 (>45 viable microorganisms Severely contaminated) | streak plate rating ([2]; Set One, DDA 900 ppm, 3rd inoculation 72 h): 5 (>45 viable microorganisms Severely contaminated) | streak plate rating ([2]; Set One, DDA 1200 ppm, 1st inoculation 24 h): 5 (>45 viable microorganisms Severely contaminated) | streak plate rating ([2]; Set One, DDA 1200 ppm, 1st inoculation 48 h): 5 (>45 viable microorganisms Severely contaminated) | streak plate rating ([2]; Set One, DDA 1200 ppm, 1st inoculation 72 h): 5 (>45 viable microorganisms Severely contaminated) | streak plate rating ([2]; Set One, DDA 1200 ppm, 2nd inoculation 24 h): 5 (>45 viable microorganisms Severely contaminated) | streak plate rating ([2]; Set One, DDA 1200 ppm, 2nd inoculation 48 h): 5 (>45 viable microorganisms Severely contaminated) | streak plate rating ([2]; Set One, DDA 1200 ppm, 3rd inoculation 24 h): 5 (>45 viable microorganisms Severely contaminated) | streak plate rating ([2]; Set One, DDA 1200 ppm, 3rd inoculation 48 h): 5 (>45 viable microorganisms Severely contaminated) | streak plate rating ([2]; Set One, DDA 1200 ppm, 3rd inoculation 72 h): 5 (>45 viable microorganisms Severely contaminated) | streak plate rating ([2]; Set One, DDA 1800 ppm, 1st inoculation 24 h): 2 (6-15 viable microorganisms Lightly contaminated) | streak plate rating ([2]; Set One, DDA 1800 ppm, 1st inoculation 48 h): 3 (16-30 viable microorganisms Moderately contaminated) | streak plate rating ([2]; Set One, DDA 1800 ppm, 1st inoculation 72 h): 1 (1-5 viable microorganisms Very lightly contaminated) | streak plate rating ([2]; Set One, DDA 1800 ppm, 2nd inoculation 24 h): 5 (>45 viable microorganisms Severely contaminated) | streak plate rating ([2]; Set One, DDA 1800 ppm, 2nd inoculation 48 h): 5 (>45 viable microorganisms Severely contaminated) | streak plate rating ([2]; Set One, DDA 1800 ppm, 3rd inoculation 24 h): 5 (>45 viable microorganisms Severely contaminated) | streak plate rating ([2]; Set One, DDA 1800 ppm, 3rd inoculation 48 h): 5 (>45 viable microorganisms Severely contaminated) | streak plate rating ([2]; Set One, DDA 1800 ppm, 3rd inoculation 72 h): 5 (>45 viable microorganisms Severely contaminated) | streak plate rating ([2]; Set Two, DDA alone, ppm not given, 1st inoculation 24 h): 5 (>45 viable microorganisms Severely contaminated) | streak plate rating ([2]; Set Two, DDA alone, ppm not given, 1st inoculation 48 h): 5 (>45 viable microorganisms Severely contaminated) | streak plate rating ([2]; Set Two, DDA alone, ppm not given, 1st inoculation 72 h): 5 (>45 viable microorganisms Severely contaminated) | streak plate rating ([2]; Set Two, DDA alone, ppm not given, 2nd inoculation 24 h): 5 (>45 viable microorganisms Severely contaminated) | streak plate rating ([2]; Set Two, DDA alone, ppm not given, 2nd inoculation 48 h): 5 (>45 viable microorganisms Severely contaminated) | streak plate rating ([2]; Set Two, DDA alone, ppm not given, 2nd inoculation 72 h): 5 (>45 viable microorganisms Severely contaminated) | streak plate rating ([2]; Set Two, DDA alone, ppm not given, 3rd inoculation 24 h): 5 (>45 viable microorganisms Severely contaminated) | streak plate rating ([2]; Set Two, DDA alone, ppm not given, 3rd inoculation 48 h): 5 (>45 viable microorganisms Severely contaminated) | streak plate rating ([2]; Set Two, DDA alone, ppm not given, 3rd inoculation 72 h): 5 (>45 viable microorganisms Severely contaminated)
